{"source": "patent US20080026996A1", "about": "“Selective Vpac2 Receptor Reptide Agonists” (ELI LILLY AND COMPANY, priority 2004, published 2008)", "key": {"[1]": {"assay": "Pharmacokinetic assay: active peptide levels in rat plasma after IV injection", "protocol": "An IVGTT with glucose is given immediately after T=0 to 6 animals per condition. Samples are taken at 0, 2, 4, 6, and 10 minutes after injection.\nFor cell handling, Plate 50,000 cells/well and keep in culture over night. Wash cell twice in PBS and add 50 μl/well stimulation medium consisting of PBS+1.2 MgCl2, 1.3 CaCl2, 2 glucose and 0.5 IBMX. Incubate 15 minutes and add 50 μl/well of the plasma samples (see layout below). Incubate 30 minutes, remove the supernatant and proceed as normal with the DiscoveRx assay. Prepare plates in duplicate. Protease and peptidase inhibitor are present in all plasma samples."}, "rat VPAC1 receptor [2]": {"biological_target": "T1, rat VPAC1 receptor (Rattus norvegicus, UniProt P30083)", "T1 sequence (P30083 31-459)": "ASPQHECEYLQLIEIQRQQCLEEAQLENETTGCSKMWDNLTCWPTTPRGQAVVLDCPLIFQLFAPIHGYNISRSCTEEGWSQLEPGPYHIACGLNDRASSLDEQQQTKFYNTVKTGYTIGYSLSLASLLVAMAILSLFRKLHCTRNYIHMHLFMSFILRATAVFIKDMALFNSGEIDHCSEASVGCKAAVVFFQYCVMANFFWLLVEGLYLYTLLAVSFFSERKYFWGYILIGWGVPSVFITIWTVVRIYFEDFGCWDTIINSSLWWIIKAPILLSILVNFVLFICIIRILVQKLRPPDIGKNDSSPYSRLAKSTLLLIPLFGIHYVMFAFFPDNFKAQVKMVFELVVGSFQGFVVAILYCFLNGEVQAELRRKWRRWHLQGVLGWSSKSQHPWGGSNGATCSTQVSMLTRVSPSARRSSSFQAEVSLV", "assay": "Adenylate cyclase activation on membrane preparations expressing rat VPAC1 receptor", "format": "biochemical", "parameters": "expressed in transfected cells; host or cells: CHO cells, crude membranes", "conditions": "for VPAC1 cAMP max: maximal increase in cyclic AMP production (over basal) per minute and per mg protein", "description": "All studies are performed on crude membranes prepared from three different cell cultures expressing the different recombinant receptors, using methodology that is known in the literature. Duplicate values are obtained for each assay.\nThe selectivity of the VPAC2 receptor peptide agonists of the present invention are tested on the rat VPAC1 and VPAC2 receptors recombinantly expressed in CHO cells. The compound of the invention were evaluated in receptor binding & adenylate cyclase activation assays.\nDose-effect curves of adenylate cyclase activation were generated using the VPAC2 receptor peptide agonists (10^−11 to 10^−6 M, two concentrations per log) of the present invention.\nAdenylate cyclase activity was determined by the procedure of Salomon et al. (1974), A highly sensitive adenylate cyclase assay. Analytical Biochemistry 58 (1974. Membrane proteins ([…]) are incubated in a total volume of […] containing 0.5 mM [^32P]-ATP, 10 µM GTP, 5 mM MgCl2, 0.5 mM EGTA, 1 mM cAMP, 1 mM theophylline, 10 mM phospho(enol)pyruvate, […] pyruvate kinase and 30 mM Tris-HCl at a final pH of 7.8. The reaction is initiated by membrane addition and is terminated after 15 min incubation at 37° C. by addition of 0.5 ml of 0.5% sodium dodecyl-sulfate solution containing 0.5 mM ATP, 0.5 mM cAMP and […] [^3H]-cAMP. cAMP was separated from ATP by two successive chromatographies on Dowex 50Wx8 and neutral alumina."}, "conscious Wistar rats": {"test_system": "conscious Wistar rats", "assay": "Oral glucose tolerance test (OGTT)", "format": "in vivo, rat", "conditions": "for Effects on glucose, AUC(0-135 min) / Effects on insulin, AUC(0-75 min): OGTT (15 min)", "description": "Oral Glucose Tolerance Test (OGTT):\nThe effect of a selective VPAC2 receptor peptide agonist (P31) on plasma insulin and glucose is evaluated during OGTT in conscious Wistar rats. The maximal dose of agonist is 10 μg/kg. Since the peptide is given intravenously and has a very short half-life, a delay between glucose and compound administrations is applied."}, "human VPAC2": {"biological_target": "T2, human VPAC2 (Homo sapiens, UniProt P41587)", "T2 construct": "expressed in transfected cells", "T2 sequence (P41587 24-438)": "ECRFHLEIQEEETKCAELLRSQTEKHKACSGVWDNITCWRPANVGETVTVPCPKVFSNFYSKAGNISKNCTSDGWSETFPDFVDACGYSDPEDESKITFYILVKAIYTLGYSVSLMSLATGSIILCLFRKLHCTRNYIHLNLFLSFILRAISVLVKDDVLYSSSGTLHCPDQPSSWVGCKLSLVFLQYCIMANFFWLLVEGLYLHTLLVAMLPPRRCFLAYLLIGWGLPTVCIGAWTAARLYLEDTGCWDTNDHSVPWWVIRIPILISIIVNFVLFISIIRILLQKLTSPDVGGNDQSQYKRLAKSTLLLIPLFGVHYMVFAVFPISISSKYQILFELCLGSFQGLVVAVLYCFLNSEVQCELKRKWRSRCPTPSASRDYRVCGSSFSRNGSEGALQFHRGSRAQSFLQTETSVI", "assay": "DiscoveRx cAMP in vitro potency, CHO-S cell line stably expressing human VPAC2 receptor", "format": "cell-based", "conditions": "cAMP generation; mean of two independent runs", "description": "Also, the cells are washed twice. The cells are incubated in assay buffer plus IBMX for 15 minutes at room temperature. […] The stimuli are present for 30 minutes. Then, the assay buffer is gently removed. […] At day 3, the assay described above for the VPAC2 receptor cell line is performed."}, "Normal Wistar rats": {"test_system": "Normal Wistar rats", "assay": "Delayed IVGTT", "format": "in vivo, rat", "conditions": "10 μg/kg iv, glucose 30 minutes later", "description": "Delayed IVGTT: Perform IVGTT as described above, making the following changes. After the initial blood sample, compound or vehicle is injected i.v. Glucose is injected i.v. 30 minutes later in a separate injection. Blood samples are taken immediately prior to administration of the compound, at 15 minutes after administration of the compound, and at 30 minutes after administration of the compound. The sample at 30 minutes after administration of the compound is taken immediately prior to glucose administration. Blood samples are drawn 2, 4, 6, 10, and 30 minutes after giving glucose (i.e. 32, 34, 36, 40 and 60 minutes after compound administration). The blood samples at 15 and 60 minutes are not essential to the study and not always taken. Aprotinin is added to the blood sample (250 kIU/ml blood). The serum is then analyzed for glucose and insulin using standard methodologies.\nThe assay uses a formulated and calibrated peptide stock in PBS. Normally, this stock is a prediluted 100 μM stock. However, a more concentrated stock with approximately 1 mg agonist per mL is used. The specific concentration is always known."}, "rat VPAC1 receptor [3]": {"biological_target": "T1, rat VPAC1 receptor", "assay": "DiscoveRx in vitro potency, CHO-PO cells transiently transfected with rat VPAC 1 receptor DNA", "format": "cell-based", "parameters": "expressed in transfected cells; host or cells: CHO-PO, transient", "description": "Also, the cells are washed twice. […] The stimuli are present for 30 minutes. Then, the assay buffer is gently removed."}, "[4]": {"conditions": "Wistar, rat, plasma, iv, 10 ug/kg"}, "[5]": {"conditions": "adenylate cyclase activation, rat VPAC1 membranes, with standard error, read-out: VPAC1 EC50 (log M) (converted)"}}, "note": "Where a SMILES comes first, the peptide text is derived from it. Where no end group is shown, it is not given here. [ ]: non-standard residue; d: D form. The star is where a group is joined. Hexanoyl = CCCCCC(=O)*; Aib = CC(C)(N)C(=O)O"}
{"compound": "H-MHSDAVFTDNYTRLRKQVAAKKYLQSIKNKRYGGPSSGAPPPS [Agonist P104]", "values": [{"measurement": "AUC(0-t)", "setting": "[1]; [4]", "result": 0.355, "unit": "nM·h"}, {"measurement": "Cmax", "setting": "[1]; [4]", "result": 3.19, "unit": "nM"}, {"measurement": "half-life", "setting": "[1]; [4]", "result": 2.35, "unit": "min"}, {"measurement": "Exposure (10 μg/kg); clearance in μg/(min * nM * kg)", "setting": "[1]; rat plasma, 10 μg/kg i.v.", "result": 0.87, "unit": "µg/min/nM/kg"}, {"measurement": "Exposure (10 μg/kg, Vdist in μg/(nM * kg))", "setting": "[1]; rat plasma, 10 μg/kg i.v.", "result": 2.64, "unit": "µg/nM/kg"}, {"measurement": "EC50", "setting": "rat VPAC1 receptor [2]", "result": 186, "unit": "nM"}, {"measurement": "VPAC1 cAMP max", "setting": "rat VPAC1 receptor [2]", "result": "195 ± 18"}]}
{"compound": "Hexanoyl-HSDAVFTDNYTRLR[Aib]QVAA[Aib]KYLQSIKNKRYGGPSSGAPPPS [Agonist P261]", "values": [{"measurement": "EC50", "setting": "rat VPAC1 receptor [2]; [5]", "result": 12.6, "unit": "nM"}, {"measurement": "VPAC1 cAMP max", "setting": "rat VPAC1 receptor [2]", "result": 126}]}
{"compound": "CCCCCC(=O)N[C@@H](Cc1c[nH]cn1)C(=O)N[C@@H](CO)C(=O)N[C@@H](CC(=O)O)C(=O)N[C@@H](C)C(=O)N[C@H](C(=O)N[C@@H](Cc1ccccc1)C(=O)N[C@H](C(=O)N[C@@H](CC(=O)O)C(=O)N[C@@H](CC(N)=O)C(=O)N[C@@H](Cc1ccc(O)cc1)C(=O)N[C@H](C(=O)N[C@@H](CCCNC(=N)N)C(=O)N[C@@H](CC(C)C)C(=O)N[C@@H](CCCNC(=N)N)C(=O)NC(C)(C)C(=O)N[C@@H](CCC(N)=O)C(=O)N[C@@H](CC(C)C)C(=O)N[C@@H](C)C(=O)N[C@@H](C)C(=O)NC(C)(C)C(=O)N[C@@H](CCCCN)C(=O)N[C@@H](Cc1ccc(O)cc1)C(=O)N[C@@H](CC(C)C)C(=O)N[C@@H](CCC(N)=O)C(=O)N[C@@H](CO)C(=O)N[C@H](C(=O)N[C@@H](CCCCN)C(=O)N[C@@H](CC(N)=O)C(=O)N[C@@H](CCCCN)C(=O)NCC(=O)NCC(=O)N1CCC[C@H]1C(=O)N[C@@H](CO)C(=O)N[C@@H](CO)C(=O)NCC(=O)N[C@@H](C)C(=O)N1CCC[C@H]1C(=O)N1CCC[C@H]1C(=O)N1CCC[C@H]1C(=O)N[C@@H](CO)C(=O)O)[C@@H](C)CC)[C@@H](C)O)[C@@H](C)O)C(C)C", "note": "[Agonist P292] (Hexanoyl-HSDAVFTDNYTRLR[Aib]QLAA[Aib]KYLQSIKNKGGPSSGAPPPS-OH; C-terminus assumed)", "values": [{"measurement": "EC50", "setting": "rat VPAC1 receptor [2]; [5]", "result": 11.5, "unit": "nM"}, {"measurement": "VPAC1 cAMP max", "setting": "rat VPAC1 receptor [2]", "result": 124}]}
{"compound": "Hexanoyl-HSDAVFTDNYTRLRKQVAAKKYLQSIKNKRYGGPSSGAPPPS [Agonist P31]", "values": [{"measurement": "EC50", "setting": "rat VPAC1 receptor [2]; [5]", "result": 25.2, "unit": "nM"}, {"measurement": "VPAC1 cAMP max", "setting": "rat VPAC1 receptor [2]", "result": "200 ± 13"}, {"measurement": "Effects on glucose, AUC(0-135 min)", "setting": "conscious Wistar rats; #1, 10 μg/kg iv", "result": "−22% AUC(0-135 min)"}, {"measurement": "Effects on insulin, AUC(0-75 min)", "setting": "conscious Wistar rats; #1, 10 μg/kg iv", "result": "+71% AUC(0-75 min)"}, {"measurement": "Effects on glucose, AUC(0-135 min)", "setting": "conscious Wistar rats; #2, 0.5 μg/kg iv", "result": "−5% AUC(0-135 min)"}, {"measurement": "Effects on insulin, AUC(0-75 min)", "setting": "conscious Wistar rats; #2, 0.5 μg/kg iv", "result": "+16% AUC(0-75 min)"}, {"measurement": "Effects on glucose, AUC(0-135 min)", "setting": "conscious Wistar rats; #2, 10 μg/kg iv", "result": "−2% AUC(0-135 min)"}, {"measurement": "Effects on insulin, AUC(0-75 min)", "setting": "conscious Wistar rats; #2, 10 μg/kg iv", "result": "+17% AUC(0-75 min)"}, {"measurement": "Effects on insulin, AUC(0-90 min)", "setting": "conscious Wistar rats; OGTT (30 min), 10 μg/kg iv", "result": "+85% AUC(0-90 min)"}, {"measurement": "Effects on glucose, AUC(0-150 min)", "setting": "conscious Wistar rats; OGTT (30 min), 10 μg/kg iv, (NS)", "result": "−1% AUC(0-150 min)"}, {"measurement": "EC50", "setting": "human VPAC2", "result": 0.11, "unit": "nM"}, {"measurement": "Effects on glucose", "setting": "Normal Wistar rats", "result": "None"}, {"measurement": "Effects on insulin, AUC(0-10 min)", "setting": "Normal Wistar rats", "result": "+91% AUC(0-10 min)"}, {"measurement": "EC50", "setting": "rat VPAC1 receptor [3]", "result": 0.44, "unit": "nM"}]}
{"compound": "Hexanoyl-HSDAVFTDNYTRLLAKLALQKYLQSIKNKRYGGPSSGAPPPS [Agonist P119]", "values": [{"measurement": "EC50", "setting": "rat VPAC1 receptor [2]; [5]", "result": 2.9, "unit": "nM"}, {"measurement": "VPAC1 cAMP max", "setting": "rat VPAC1 receptor [2]", "result": "207 ± 13"}, {"measurement": "EC50", "setting": "human VPAC2", "result": 0.34, "unit": "nM"}, {"measurement": "EC50", "setting": "rat VPAC1 receptor [3]", "result": 0.07, "unit": "nM"}]}
